Measurements from PubChem BioAssay AID1963981 (Molecular Pharmacology Branch, DTP, NCI, 2024).
One block for each molecule: values may come before it.

Test system: 354836-022-R-J1-PDC multicell spheroid viability
Assay: Anticancer human tumor 354836-022-R-J1-PDC patient-derived head and neck squamous cell carcinoma cell line growth inhibition [PI3K]
Conditions: for viability, T/C: stronger effect = lower value
Procedure, shortened: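 Complex 3D spheroids (cancer cells + endothelial HUVEC + mesenchymal stem cells); drug pairs of targeted agent x inavolisib/alpelisib/duvelisib/copanlisib; half-log series from ~Cmax, max 10 microM if Cmax unknown; endpoint viability.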

[1] = curve of first compound, second compound 0.00316 µM
[2] = curve of first compound, second compound 0.01 µM
[3] = curve of first compound, second compound 0.0316 µM
[4] = curve of first compound, second compound 0.1 µM
[5] = curve of first compound, second compound 0.316 µM
[6] = curve of first compound, second compound 1 µM
[7] = second compound 0.00316 µM, first compound 0.0316 µM
[8] = second compound 0.00316 µM, first compound 0.1 µM
[9] = second compound 0.00316 µM, first compound 0.316 µM
[10] = second compound 0.00316 µM, first compound 1 µM
[11] = second compound 0.00316 µM, first compound 3.16 µM
[12] = second compound 0.00316 µM, first compound 10 µM
[13] = second compound 0.01 µM, first compound 0.0316 µM
[14] = second compound 0.01 µM, first compound 0.1 µM
[15] = second compound 0.01 µM, first compound 0.316 µM
[16] = second compound 0.01 µM, first compound 1 µM
[17] = second compound 0.01 µM, first compound 3.16 µM
[18] = second compound 0.01 µM, first compound 10 µM
[19] = second compound 0.0316 µM, first compound 0.0316 µM
[20] = second compound 0.0316 µM, first compound 0.1 µM
[21] = second compound 0.0316 µM, first compound 0.316 µM
[22] = second compound 0.0316 µM, first compound 1 µM
[23] = second compound 0.0316 µM, first compound 3.16 µM
[24] = second compound 0.0316 µM, first compound 10 µM
[25] = second compound 0.1 µM, first compound 0.0316 µM
[26] = second compound 0.1 µM, first compound 0.1 µM
[27] = second compound 0.1 µM, first compound 0.316 µM
[28] = second compound 0.1 µM, first compound 1 µM
[29] = second compound 0.1 µM, first compound 3.16 µM
[30] = second compound 0.1 µM, first compound 10 µM
[31] = second compound 0.316 µM, first compound 0.0316 µM
[32] = second compound 0.316 µM, first compound 0.1 µM
[33] = second compound 0.316 µM, first compound 0.316 µM
[34] = second compound 0.316 µM, first compound 1 µM
[35] = second compound 0.316 µM, first compound 3.16 µM
[36] = second compound 0.316 µM, first compound 10 µM
[37] = second compound 1 µM, first compound 0.0316 µM
[38] = second compound 1 µM, first compound 0.1 µM
[39] = second compound 1 µM, first compound 0.316 µM
[40] = second compound 1 µM, first compound 1 µM
[41] = second compound 1 µM, first compound 3.16 µM
[42] = second compound 1 µM, first compound 10 µM
[43] = curve of first compound, second compound 3.16 µM
[44] = curve of first compound, second compound 10 µM
[45] = second compound 3.16 µM, first compound 0.0316 µM
[46] = second compound 3.16 µM, first compound 0.1 µM
[47] = second compound 3.16 µM, first compound 0.316 µM
[48] = second compound 3.16 µM, first compound 1 µM
[49] = second compound 3.16 µM, first compound 3.16 µM
[50] = second compound 3.16 µM, first compound 10 µM
[51] = second compound 10 µM, first compound 0.0316 µM
[52] = second compound 10 µM, first compound 0.1 µM
[53] = second compound 10 µM, first compound 0.316 µM
[54] = second compound 10 µM, first compound 1 µM
[55] = second compound 10 µM, first compound 3.16 µM
[56] = second compound 10 µM, first compound 10 µM
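Further: spheroids exposed to agents for seven days before the viability read.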

IC50 [1]: 148 nM
IC50 [2]: 220 nM
IC50 [3]: 116 nM
IC50 [4]: < 31.6 nM
IC50 [5]: < 31.6 nM
IC50 [6]: < 31.6 nM
SMILES: Cn1ncc(Cl)c1-c1cc(C(=O)NC(CN)Cc2cccc(F)c2)sc1Cl (configuration not stated) + COc1c(OCCCN2CCOCC2)ccc2c3n(c(=NC(=O)c4cnc(N)nc4)nc12)CCN3
viability, T/C [7]: 78%
viability, T/C [8]: 56%
viability, T/C [9]: 37.3%
viability, T/C [10]: 23.2%
viability, T/C [11]: 8.77%
viability, T/C [12]: 1.45%
viability, T/C [13]: 73%
viability, T/C [14]: 74.2%
viability, T/C [15]: 37.2%
viability, T/C [16]: 19%
viability, T/C [17]: 8.38%
viability, T/C [18]: 1.92%
viability, T/C [19]: 66.7%
viability, T/C [20]: 52.8%
viability, T/C [21]: 33.1%
viability, T/C [22]: 16.1%
viability, T/C [23]: 8.7%
viability, T/C [24]: 2.85%
viability, T/C [25]: 45.2%
viability, T/C [26]: 33.6%
viability, T/C [27]: 20.1%
viability, T/C [28]: 8.6%
viability, T/C [29]: 2.88%
viability, T/C [30]: 0.98%
viability, T/C [31]: 14.4%
viability, T/C [32]: 10.3%
viability, T/C [33]: 5.2%
viability, T/C [34]: 2.69%
viability, T/C [35]: 3.48%
viability, T/C [36]: 1.06%
viability, T/C [37]: 1.56%
viability, T/C [38]: 1.83%
viability, T/C [39]: 1.63%
viability, T/C [40]: 2.2%
viability, T/C [41]: 1.8%
viability, T/C [42]: 1.4%

IC50 [3]: > 10000 nM
IC50 [4]: > 10000 nM
IC50 [5]: > 10000 nM
IC50 [6]: > 10000 nM
IC50 [43]: > 10000 nM
IC50 [44]: > 10000 nM
SMILES: C[C@@H](NC(=O)c1ncnc(N)c1Cl)c1ncc(C(=O)Nc2cc(C(F)(F)F)c(Cl)cn2)s1 + CC(Nc1ncnc2nc[nH]c12)c1cc2cccc(Cl)c2c(=O)n1-c1ccccc1
viability, T/C [19]: 88.8%
viability, T/C [20]: 84.2%
viability, T/C [21]: 102%
viability, T/C [22]: 85%
viability, T/C [23]: 99.7%
viability, T/C [24]: 75.5%
viability, T/C [25]: 90.3%
viability, T/C [26]: 104%
viability, T/C [27]: 108%
viability, T/C [28]: 89%
viability, T/C [29]: 89.6%
viability, T/C [30]: 59.4%
viability, T/C [31]: 103%
viability, T/C [32]: 104%
viability, T/C [33]: 92.5%
viability, T/C [34]: 98.8%
viability, T/C [35]: 87.9%
viability, T/C [36]: 62.1%
viability, T/C [37]: 100%
viability, T/C [38]: 94.5%
viability, T/C [39]: 97.4%
viability, T/C [40]: 96.5%
viability, T/C [41]: 102%
viability, T/C [42]: 71%
viability, T/C [45]: 90.6%
viability, T/C [46]: 89.3%
viability, T/C [47]: 105%
viability, T/C [48]: 99%
viability, T/C [49]: 92.8%
viability, T/C [50]: 68.9%
viability, T/C [51]: 82.7%
viability, T/C [52]: 86%
viability, T/C [53]: 84.8%
viability, T/C [54]: 93.1%
viability, T/C [55]: 87.7%
viability, T/C [56]: 70.3%

The remaining lines, values behind:

SMILES: C=CC(=O)N1CCN(c2nc(=O)n(-c3c(C)ccnc3C(C)C)c3nc(-c4c(O)cccc4F)c(F)cc23)C(C)C1 (configuration not stated) + COc1c(OCCCN2CCOCC2)ccc2c3n(c(=NC(=O)c4cnc(N)nc4)nc12)CCN3
IC50 [1]: > 10000 nM
IC50 [2]: > 10000 nM
IC50 [3]: > 10000 nM
IC50 [4]: > 10000 nM
IC50 [5]: < 31.6 nM
IC50 [6]: < 31.6 nM
viability, T/C [7]: 96.3%
viability, T/C [8]: 106%
viability, T/C [9]: 109%
viability, T/C [10]: 108%
viability, T/C [11]: 118%
viability, T/C [12]: 116%
viability, T/C [13]: 97.7%
viability, T/C [14]: 99%
viability, T/C [15]: 98.5%
viability, T/C [16]: 102%
viability, T/C [17]: 105%
viability, T/C [18]: 90.4%
viability, T/C [19]: 83.2%
viability, T/C [20]: 83.5%
viability, T/C [21]: 72%
viability, T/C [22]: 82.6%
viability, T/C [23]: 110%
viability, T/C [24]: 95.4%
viability, T/C [25]: 61.4%
viability, T/C [26]: 45.3%
viability, T/C [27]: 59.2%
viability, T/C [28]: 62.8%
viability, T/C [29]: 61.5%
viability, T/C [30]: 55.6%
viability, T/C [31]: 14.3%
viability, T/C [32]: 16.2%
viability, T/C [33]: 16.2%
viability, T/C [34]: 18.4%
viability, T/C [35]: 25.9%
viability, T/C [36]: 13%
viability, T/C [37]: 1.79%
viability, T/C [38]: 1.75%
viability, T/C [39]: 1.72%
viability, T/C [40]: 2.49%
viability, T/C [41]: 1.82%
viability, T/C [42]: 1.3%

SMILES: COc1c(OCCCN2CCOCC2)ccc2c3n(c(=NC(=O)c4cnc(N)nc4)nc12)CCN3
viability, T/C (compound 0.00316 µM): 106% [middle of 8 runs]
viability, T/C (compound 0.01 µM): 97.6% [middle of 8 runs]
viability, T/C (compound 0.0316 µM): 82.5% [middle of 8 runs]
viability, T/C (compound 0.1 µM): 50.2% [middle of 8 runs]
viability, T/C (compound 0.316 µM): 11.2% [middle of 8 runs]
viability, T/C (compound 1 µM): 1.63% [middle of 8 runs]
IC50 (compound alone, run of 06/13/2023): 91.2 nM [middle of 8 runs]

SMILES: CC1(C)CCC(CN2CCN(c3ccc(C(=O)NS(=O)(=O)c4ccc(NCC5CCOCC5)c([N+](=O)[O-])c4)c(Oc4cnc5[nH]ccc5c4)c3)CC2)=C(c2ccc(Cl)cc2)C1 + Cc1nc(NC(=O)N2CCCC2C(N)=O)sc1-c1ccnc(C(C)(C)C(F)(F)F)c1
IC50 [3]: 4530 nM
IC50 [4]: 4080 nM
IC50 [5]: 4270 nM
IC50 [6]: 4310 nM
IC50 [43]: 2740 nM
IC50 [44]: < 31.6 nM
viability, T/C [19]: 99.3%
viability, T/C [20]: 82.3%
viability, T/C [21]: 94.3%
viability, T/C [22]: 91.7%
viability, T/C [23]: 70.1%
viability, T/C [24]: 5.83%
viability, T/C [25]: 109%
viability, T/C [26]: 93%
viability, T/C [27]: 97.1%
viability, T/C [28]: 100%
viability, T/C [29]: 63%
viability, T/C [30]: 4.78%
viability, T/C [31]: 99.7%
viability, T/C [32]: 86.4%
viability, T/C [33]: 79.5%
viability, T/C [34]: 91.9%
viability, T/C [35]: 65.4%
viability, T/C [36]: 6.04%
viability, T/C [37]: 83.7%
viability, T/C [38]: 79.6%
viability, T/C [39]: 88.4%
viability, T/C [40]: 79.7%
viability, T/C [41]: 67%
viability, T/C [42]: 4.76%
viability, T/C [45]: 68.3%
viability, T/C [46]: 66.5%
viability, T/C [47]: 72.1%
viability, T/C [48]: 60.8%
viability, T/C [49]: 48.8%
viability, T/C [50]: 4.11%
viability, T/C [51]: 38.1%
viability, T/C [52]: 39.8%
viability, T/C [53]: 43.8%
viability, T/C [54]: 37.4%
viability, T/C [55]: 34.6%
viability, T/C [56]: 7.88%

SMILES: CC(C)NCC(C(=O)N1CCN(c2ncnc3c2C(C)CC3O)CC1)c1ccc(Cl)cc1 (configuration not stated) + CC(Nc1ccc2c(c1)OCCn1cc(N3C(=O)OCC3C(F)F)nc1-2)C(N)=O
IC50 [1]: 242 nM
IC50 [2]: 328 nM
IC50 [3]: 333 nM
IC50 [4]: 590 nM
IC50 [5]: 202 nM
IC50 [6]: 72.2 nM
viability, T/C [7]: 82.9%
viability, T/C [8]: 69.4%
viability, T/C [9]: 42.8%
viability, T/C [10]: 26.7%
viability, T/C [11]: 22.1%
viability, T/C [12]: 12.5%
viability, T/C [13]: 95.5%
viability, T/C [14]: 68.5%
viability, T/C [15]: 58.2%
viability, T/C [16]: 24.4%
viability, T/C [17]: 22.3%
viability, T/C [18]: 8.88%
viability, T/C [19]: 74.5%
viability, T/C [20]: 75%
viability, T/C [21]: 45.8%
viability, T/C [22]: 31.9%
viability, T/C [23]: 21.3%
viability, T/C [24]: 10.8%
viability, T/C [25]: 75.4%
viability, T/C [26]: 73.6%
viability, T/C [27]: 68.5%
viability, T/C [28]: 34.2%
viability, T/C [29]: 18.6%
viability, T/C [30]: 8.92%
viability, T/C [31]: 62.4%
viability, T/C [32]: 58.6%
viability, T/C [33]: 44.7%
viability, T/C [34]: 28.4%
viability, T/C [35]: 16.2%
viability, T/C [36]: 7.58%
viability, T/C [37]: 56.7%
viability, T/C [38]: 45.9%
viability, T/C [39]: 38.9%
viability, T/C [40]: 28%
viability, T/C [41]: 15.8%
viability, T/C [42]: 9.1%
